In PubChem BioAssay AID2060503 (Molecular Pharmacology Branch, DTP, NCI, 2025):
pIC50: −log10 of the molar value. Values belong to the compound of their own block, whether it stands above or below them.

Test system: 817829-284-R-J1-PDC complex spheroids, viability
Assay: Anticancer human tumor 817829-284-R-J1-PDC patient-derived colon adenocarcinoma cell line growth inhibition [GQUAD]
Conditions: for pIC50: curve of first compound; for viability, T/C: stronger effect = lower value
Procedure, shortened: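 Tumor cells were grown as complex spheroids with HUVEC endothelial cells and mesenchymal stem cells as stroma. G-quadruplex stabilizers were combined with targeted agents over half-log dilutions from near the clinical Cmax, or from 10 microM.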

[1] = second compound 0.0316 µM, first compound 0.0316 µM
[2] = second compound 0.0316 µM, first compound 0.1 µM
[3] = second compound 0.0316 µM, first compound 0.316 µM
[4] = second compound 0.0316 µM, first compound 1 µM
[5] = second compound 0.0316 µM, first compound 3.16 µM
[6] = second compound 0.0316 µM, first compound 10 µM
[7] = second compound 0.1 µM, first compound 0.0316 µM
[8] = second compound 0.1 µM, first compound 0.1 µM
[9] = second compound 0.1 µM, first compound 0.316 µM
[10] = second compound 0.1 µM, first compound 1 µM
[11] = second compound 0.1 µM, first compound 3.16 µM
[12] = second compound 0.1 µM, first compound 10 µM
[13] = second compound 0.316 µM, first compound 0.0316 µM
[14] = second compound 0.316 µM, first compound 0.1 µM
[15] = second compound 0.316 µM, first compound 0.316 µM
[16] = second compound 0.316 µM, first compound 1 µM
[17] = second compound 0.316 µM, first compound 3.16 µM
[18] = second compound 0.316 µM, first compound 10 µM
[19] = second compound 1 µM, first compound 0.0316 µM
[20] = second compound 1 µM, first compound 0.1 µM
[21] = second compound 1 µM, first compound 0.316 µM
[22] = second compound 1 µM, first compound 1 µM
[23] = second compound 1 µM, first compound 3.16 µM
[24] = second compound 1 µM, first compound 10 µM
[25] = second compound 3.16 µM, first compound 0.0316 µM
[26] = second compound 3.16 µM, first compound 0.1 µM
[27] = second compound 3.16 µM, first compound 0.316 µM
[28] = second compound 3.16 µM, first compound 1 µM
[29] = second compound 3.16 µM, first compound 3.16 µM
[30] = second compound 3.16 µM, first compound 10 µM
[31] = second compound 10 µM, first compound 0.0316 µM
[32] = second compound 10 µM, first compound 0.1 µM
[33] = second compound 10 µM, first compound 0.316 µM
[34] = second compound 10 µM, first compound 1 µM
[35] = second compound 10 µM, first compound 3.16 µM
[36] = second compound 10 µM, first compound 10 µM
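Further: spheroids exposed to agents for 7 days before readout.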
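Wherever viability, T/C is given: percent viability relative to DMSO vehicle control taken as 100%.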

pIC50 (second compound 0.0316 µM): < 5.00 | pIC50 (second compound 0.1 µM): > 7.50 | pIC50 (second compound 0.316 µM): > 7.50 | pIC50 (second compound 1 µM): > 7.50 | pIC50 (second compound 3.16 µM): > 7.50 | pIC50 (second compound 10 µM): > 7.50
SMILES: COc1ncnc(C2CC2)c1-c1ncc2cnn(Cc3ccc(-c4nc(C(F)(F)F)cn4C(C)C)cc3)c2n1 + Cc1cnc(CNC(=O)c2c(=O)c3ccc(N4CCCN(C)CC4)nc3n3c2sc2ccccc23)cn1
viability, T/C [1]: 63.5% | viability, T/C [2]: 51.9% | viability, T/C [3]: 55.5% | viability, T/C [4]: 43.7% | viability, T/C [5]: 66% | viability, T/C [6]: 64.1% | viability, T/C [7]: 28.1% | viability, T/C [8]: 31.1% | viability, T/C [9]: 28.2% | viability, T/C [10]: 29.5% | viability, T/C [11]: 28.4% | viability, T/C [12]: 33.2% | viability, T/C [13]: 19.2% | viability, T/C [14]: 26.4% | viability, T/C [15]: 20.8% | viability, T/C [16]: 25.4% | viability, T/C [17]: 25.6% | viability, T/C [18]: 22.8% | viability, T/C [19]: 19.3% | viability, T/C [20]: 22.8% | viability, T/C [21]: 21.1% | viability, T/C [22]: 20.8% | viability, T/C [23]: 22.1% | viability, T/C [24]: 18% | viability, T/C [25]: 16.9% | viability, T/C [26]: 18.9% | viability, T/C [27]: 17.7% | viability, T/C [28]: 19.4% | viability, T/C [29]: 21.6% | viability, T/C [30]: 18.1% | viability, T/C [31]: 0.12% | viability, T/C [32]: 0.17% | viability, T/C [33]: 0.18% | viability, T/C [34]: 0.16% | viability, T/C [35]: 0.21% | viability, T/C [36]: 0.22%

pIC50 (second compound 0.0316 µM): 8.14 | pIC50 (second compound 0.1 µM): > 9.00 | pIC50 (second compound 0.316 µM): > 9.00 | pIC50 (second compound 1 µM): > 9.00 | pIC50 (second compound 3.16 µM): > 9.00 | pIC50 (second compound 10 µM): > 9.00
SMILES: Cc1[nH]c2ccccc2c1CCNCc1ccc(/C=C/C(=O)NO)cc1 + Cc1cnc(CNC(=O)c2c(=O)c3ccc(N4CCCN(C)CC4)nc3n3c2sc2ccccc23)cn1
viability, T/C (second compound 0.0316 µM, first compound 0.000999 µM): 83.2% | viability, T/C (second compound 0.0316 µM, first compound 0.00316 µM): 67.1% | viability, T/C (second compound 0.0316 µM, first compound 0.00999 µM): 44.2% | viability, T/C [1]: 17.7% | viability, T/C (second compound 0.0316 µM, first compound 0.0999 µM): 5.1% | viability, T/C [3]: 0.06% | viability, T/C (second compound 0.1 µM, first compound 0.000999 µM): 27.4% | viability, T/C (second compound 0.1 µM, first compound 0.00316 µM): 31.7% | viability, T/C (second compound 0.1 µM, first compound 0.00999 µM): 21.3% | viability, T/C [7]: 18.4% | viability, T/C (second compound 0.1 µM, first compound 0.0999 µM): 6.46% | viability, T/C [9]: 0.06% | viability, T/C (second compound 0.316 µM, first compound 0.000999 µM): 21.5% | viability, T/C (second compound 0.316 µM, first compound 0.00316 µM): 24.8% | viability, T/C (second compound 0.316 µM, first compound 0.00999 µM): 17.1% | viability, T/C [13]: 15.9% | viability, T/C (second compound 0.316 µM, first compound 0.0999 µM): 4.53% | viability, T/C [15]: 0.05% | viability, T/C (second compound 1 µM, first compound 0.000999 µM): 18.3% | viability, T/C (second compound 1 µM, first compound 0.00316 µM): 20.6% | viability, T/C (second compound 1 µM, first compound 0.00999 µM): 15.7% | viability, T/C [19]: 13.7% | viability, T/C (second compound 1 µM, first compound 0.0999 µM): 3.62% | viability, T/C [21]: 0.06% | viability, T/C (second compound 3.16 µM, first compound 0.000999 µM): 15.1% | viability, T/C (second compound 3.16 µM, first compound 0.00316 µM): 18.6% | viability, T/C (second compound 3.16 µM, first compound 0.00999 µM): 15.4% | viability, T/C [25]: 11.8% | viability, T/C (second compound 3.16 µM, first compound 0.0999 µM): 0.11% | viability, T/C [27]: 0.1% | viability, T/C (second compound 10 µM, first compound 0.000999 µM): 0.1% | viability, T/C (second compound 10 µM, first compound 0.00316 µM): 0.14% | viability, T/C (second compound 10 µM, first compound 0.00999 µM): 0.2% | viability, T/C [31]: 0.18% | viability, T/C (second compound 10 µM, first compound 0.0999 µM): 0.2% | viability, T/C [33]: 0.2%

pIC50 (second compound 0.0316 µM): 7.27 | pIC50 (second compound 0.1 µM): > 7.50 | pIC50 (second compound 0.316 µM): > 7.50 | pIC50 (second compound 1 µM): > 7.50 | pIC50 (second compound 3.16 µM): > 7.50 | pIC50 (second compound 10 µM): > 7.50
SMILES: O=C(NO)c1cnc(N2CCN(S(=O)(=O)c3ccc4ccccc4c3)CC2)nc1 + Cc1cnc(CNC(=O)c2c(=O)c3ccc(N4CCCN(C)CC4)nc3n3c2sc2ccccc23)cn1
viability, T/C [1]: 77.5% | viability, T/C [2]: 16.4% | viability, T/C [3]: 5.04% | viability, T/C [4]: 0.12% | viability, T/C [5]: 0.03% | viability, T/C [6]: 0.07% | viability, T/C [7]: 19.2% | viability, T/C [8]: 21.4% | viability, T/C [9]: 3.6% | viability, T/C [10]: 0.1% | viability, T/C [11]: 0.02% | viability, T/C [12]: 0.06% | viability, T/C [13]: 18.8% | viability, T/C [14]: 18.1% | viability, T/C [15]: 4.03% | viability, T/C [16]: 0.05% | viability, T/C [17]: 0.02% | viability, T/C [18]: 0.06% | viability, T/C [19]: 17.5% | viability, T/C [20]: 16.4% | viability, T/C [21]: 1.77% | viability, T/C [22]: 0.04% | viability, T/C [23]: 0.03% | viability, T/C [24]: 0.07% | viability, T/C [25]: 14.8% | viability, T/C [26]: 12.7% | viability, T/C [27]: 0.09% | viability, T/C [28]: 0.05% | viability, T/C [29]: 0.06% | viability, T/C [30]: 0.09% | viability, T/C [31]: 0.07% | viability, T/C [32]: 0.11% | viability, T/C [33]: 0.13% | viability, T/C [34]: 0.09% | viability, T/C [35]: 0.14% | viability, T/C [36]: 0.15%
